According to patent US5891924A, “Curcumin (diferuloylmethane) inhibition of NFκB activation” (Research Development Foundation, priority 1996, dated 1999):

Experiments:
[1] = tested on: NF-κB; assay: TNF-dependent NF-κB activation by electrophoretic mobility shift assay in ML-1a cells; assay type: cell-based, human
[2] = tested on: NF-κB; assay: Binding of NF-κB to DNA, nuclear extracts from TNF-pre-activated cells incubated with curcumin, EMSA; parameters: species or system human; settings: nuclear extracts from TNF-pre-activated cells incubated with curcumin 15 minutes, FIG. 2b
[3] = tested on: NF-κB; assay: PMA- and H2O2-mediated activation of NF-κB in ML-1a cells, EMSA; assay type: cell-based, human; settings: curcumin 50 μM 60 minutes preincubation, FIG. 3
[4] = tested on: AP-1; assay: EMSA of AP-1 transcription factor in curcumin-treated cells; assay type: cell-based, human; settings: cells treated with different concentrations of curcumin 60 minutes at 37° C., FIG. 4
[5] = tested on: Sp1; assay: EMSA of Sp1 transcription factor in curcumin-treated cells; assay type: cell-based, human; settings: cells treated with different concentrations of curcumin 60 minutes at 37° C., FIG. 4
[6] = tested on: NF-κB; assay: Effect of reducing agents DTT and DMP on inhibition of TNF-induced NF-κB activation, EMSA; assay type: cell-based, human; settings: DTT 100 μM or DMP 100 μM, curcumin 50 μM or PAO 2.4 μM, 60 minutes, then 0.1 nM TNF 30 minutes, FIG. 5
[7] = tested on: IκBα; assay: Western blot for TNF-induced phosphorylation and degradation of IκBα in ML-1a cells; assay type: cell-based, human; settings: curcumin 50 μM 60 minutes pretreatment, TNF 0.1 nM different times, cytosolic fraction, FIG. 6A
Experimental: ML-1a (2×10^6 /ml) pretreated (for 60 minutes at 37° C.) with or without curcumin (50 μM) were incubated for different times with TNF (0.1 nM), and then assayed for IκBα (FIG. 6A) and for p65 (FIG. 6B) in cytosolic fractions by western blot analysis as described below. ML-1a (2×10^6 /ml) pretreated (for 60 minutes at 37° C.) with curcumin were incubated with TNF (0.1 nM) for 30 minutes. Nuclear and cytoplasmic extracts were assayed by western blot analysis for p65. The arbitrary units represent the relative amounts of the respective proteins as described below.
After the NF-κB activation reaction described above, postnuclear extracts were resolved on 10% SDS-polyacrylamide gels for IκBα. To determine p65 levels, nuclear and post nuclear (cytoplasmic) extracts were resolved on 8% SDS-polyacrylamide gels. After the gels, the proteins were electrotransferred to nitrocellulose filters, probed with a rabbit polyclonal antibody against IκBa or against p65, and detected by chemiluminescence (ECL-Amersham) (22). The bands obtained were quantitated using Personal Densitometer Scan v1.30 using Image Quanta software version 3.3 (Molecular Dynamics, Sunnyvale, Calif.).
The translocation of NF-κB to the nucleus is preceded by the phosphorylation and proteolytic degradation of IκBα (26). […]

[8] = tested on: p65 subunit of NF-κB; assay: Western blot for p65 level in cytoplasm and nucleus of TNF-treated ML-1a cells; assay type: cell-based, human

**Q.** What does the source list for `COc1cc(/C=C/C(=O)CC(=O)/C=C/c2ccc(O)c(OC)c2)ccc1O` [curcumin, diferuloylmethane]?
**A.** inhibition of TNF response, pretreatment with curcumin ([1]; 20 μM curcumin 60, 30 and 10 minutes prior to TNF 0.1 nM, TNF 30 minutes, FIG. 1b): inhibited only when cells were pretreated; inhibition of TNF response, cotreatment of cells with TNF and curcumin ([1]; 20 μM curcumin added at the same time as TNF 0.1 nM, TNF 30 minutes, FIG. 1b): not effective; inhibition of NF-κB activation induced by 10 nM TNF ([1]; 50 μM curcumin 60 minutes pretreatment, 10 nM TNF for different times, FIG. 1c): completely inhibit; activation of NF-κB by the compound by itself ([1]; ML-1a cells, without TNF, EMSA): did not activate; effect on the ability of NF-κB to bind to the DNA [2]: did not modify; inhibition of hydrogen peroxide-induced activation of NF-κB ([3]; H2O2 0.5 mM 30 minutes): completely blocked; inhibition of PMA-induced activation of NF-κB ([3]; PMA 25 ng/ml 30 minutes): completely blocked; effect on DNA binding of AP-1 transcription factors [4]: down-modulated; effect on the Sp1 transcription factor [5]: no effect; reversal by DTT and DMP of the inhibition of TNF-induced NF-κB activation [6]: did not reverse; effect on TNF-induced phosphorylation and degradation of IκBα [7]: abolished; effect on TNF-dependent change in nuclear and cytoplasmic p65 levels (translocation of p65 to the nucleus) ([8]; curcumin 50 μM 60 minutes pretreatment, TNF 0.1 nM, FIGS. 6B and 6C): abolished; down-modulation of the cytoplasmic pool of p65 subunit of NF-κB ([8]; curcumin-treated ML-1a cells, western blot): not down-modulated
